Values of other authors in patent US20080161413A1, “Agent for increasing adiponectin in blood” (YAMAHA HATSUDOKI KABUSHIKI KAISHA, priority 2006, published 2008).

Test system: adiponectin
Conditions: obese/diabetic mice

For `COc1cc(C(C)=O)ccc1O` [apocynin], which production of adiponectin is on record?
The production of adiponectin was “increases”.
